test system: Entamoeba histolytica; experiment: Antiamoebic activity against Entamoeba histolytica HM1:IMSS by microdilution method; assay type: functional, organism-based

IC50 [µM] | Structure (SMILES)
6.08 | S=C(N/N=C\c1c[nH]c2ccccc12)NC1CCCCCCC1
8.37 | CC1CCN(C(=S)N/N=C\c2c[nH]c3ccccc23)CC1
1.08 | S=C(N/N=C\c1c[nH]c2ccccc12)NC1C2CC3CC(C2)CC1C3 (configuration not stated)
14.6 | S=C(N/N=C\c1c[nH]c2ccccc12)N1CCCC1
3.09 | S=C(N/N=C\c1c[nH]c2ccccc12)N1CCN(c2ccccc2)CC1
13.9 | S=C(N/N=C\c1c[nH]c2ccccc12)NC1CCCC1
1.68 | S=C(N/N=C\c1c[nH]c2ccccc12)N1CCCc2ccccc21
